# Assay results from patent publication US6239087A, “Detergent compositions containing fragrance precursors and the fragrance precursors themselves” (The Procter & Gamble Company, priority 1998, dated 2001).
# Experiment: Pro-Fragrant Hydrolysis Test (hydrolysis half-life t-1/2 by UV/Vis)
# Type: physicochemical
# Conditions: pH 0; 90/10 dioxane/water, 30° C.
# Method: Hydrolysis half-life is the measurement used to determine the ease with which the pro-fragrance compound undergoes acid hydrolysis and thereby releases its fragrance component(s) upon exposure to acid conditions. […] Preferably, pro-fragrances of the invention have a half-life at pH 2 of less than 60 minutes. For granular detergents, the more reactive pro-fragrances, that is, those with half-life at pH 2 of less than one minute, are most suitable, although those having a half-life of less than 60 minutes at pH 0 are also useful. For liquid detergent applications, pro-fragrances having a half-life of less than 60 minutes at pH 0, and half-life greater than one minute at pH 2 should preferably be used.
# Hydrolysis half-life is determined by UV/V is spectroscopy in a 90/10 dioxane/water system at 30° C. by following the appearance of the carbonyl absorbance. Because of the hydrophobicity of the pro-fragrance compounds of the invention, a high dioxane/water ratio is needed to ensure solubility of the pro-fragrance. The pH of the water used is achieved by using aqueous HCl. The concentration of the pro-fragrance in the dioxane/water system can be adjusted to achieve convenient, measurable absorbance changes.
# All measurements are carried out using a Hewlett Packard 8452 A Diode Array Spectrophotometer using quartz 1 cm path length cuvette cells. […] The pH's are measured using an Orion 230 A standardized with pH 4 and pH 7 buffers. […]
# Pro-fragrance is weighed out in a 10.00 ml volumetric flask using an analytical balance (Mettler AE 200) Precision is 1/10 mg. […] Hydrolysis time is measured, starting upon addition of the acid. […] The absorbance of the pro-fragrance solution (At) is followed at a regular series of time intervals, and the cuvette is kept in the water-bath at the above-indicated temperature between measurements. Initial absorbance (Ao) measurements are carried out using an equal concentration of pro-fragrance in a 90/10 v/v dioxane-deionized water solution, and final absorbance (Af) measurements are taken using the hydrolyzed pro-fragrance solution after the hydrolysis is complete. The wavelength at which the hydrolysis is followed is chosen at the wavelength of the absorbance maximum of the parent aldehyde or ketone.
# Reaction half-lifes are determined using conventional procedures. The observed first-order rate constant (kobs) is determined by slope of the line provided by plotting the following finction vs time (min):
# wherein said function is the natural log of the ratio between the absorbance difference at initial time (Ao) and final time (Af) over the absorbance difference at time t (At) and final time (Af). […]
row,SMILES,t1/2 (hydrolysis half-life)
1,"CCCCCCCCCCOC(OCCCCCCCCCC)c1ccc(OC)cc1 [Example 1, Didecyl Anisaldehyde Acetal]",less than 1 minutes
2,"CC(C)=CCCC(C)=CC(OC/C=C(\C)CCC=C(C)C)OC/C=C(\C)CCC=C(C)C [Example 2, Digeranyl Citral Acetal]",less than one
3,"CCCCCCCCCCOC(C)(CCc1ccccc1)OCCCCCCCCCC [Example 3, Didecyl Benzyl Acetone Ketal]",less than one
4,"CCCCCCCCCC(OC/C=C(\C)CCC=C(C)C)OC/C=C(\C)CCC=C(C)C [Example 4, Digeranyl Decanal Acetal]",44 min
